Results: ChEMBL document CHEMBL1201862, “PubChem BioAssay data set” (2004)
Calls of active or inactive are those of the source.

Assays:
Protein RecA [1] = target: T1, Protein RecA (Mycobacterium tuberculosis, UniProt P9WHJ3); test: GFP-RecA MOA-DTT Measured in Biochemical System Using Plate Reader - 2047-05_Inhibitor_Dose_DryPowder_Activity. [Related pubchem assays (depositor defined):AID2223]; parameters: species or system Mycobacterium tuberculosis H37Rv
T1 sequence (P9WHJ3 whole entry): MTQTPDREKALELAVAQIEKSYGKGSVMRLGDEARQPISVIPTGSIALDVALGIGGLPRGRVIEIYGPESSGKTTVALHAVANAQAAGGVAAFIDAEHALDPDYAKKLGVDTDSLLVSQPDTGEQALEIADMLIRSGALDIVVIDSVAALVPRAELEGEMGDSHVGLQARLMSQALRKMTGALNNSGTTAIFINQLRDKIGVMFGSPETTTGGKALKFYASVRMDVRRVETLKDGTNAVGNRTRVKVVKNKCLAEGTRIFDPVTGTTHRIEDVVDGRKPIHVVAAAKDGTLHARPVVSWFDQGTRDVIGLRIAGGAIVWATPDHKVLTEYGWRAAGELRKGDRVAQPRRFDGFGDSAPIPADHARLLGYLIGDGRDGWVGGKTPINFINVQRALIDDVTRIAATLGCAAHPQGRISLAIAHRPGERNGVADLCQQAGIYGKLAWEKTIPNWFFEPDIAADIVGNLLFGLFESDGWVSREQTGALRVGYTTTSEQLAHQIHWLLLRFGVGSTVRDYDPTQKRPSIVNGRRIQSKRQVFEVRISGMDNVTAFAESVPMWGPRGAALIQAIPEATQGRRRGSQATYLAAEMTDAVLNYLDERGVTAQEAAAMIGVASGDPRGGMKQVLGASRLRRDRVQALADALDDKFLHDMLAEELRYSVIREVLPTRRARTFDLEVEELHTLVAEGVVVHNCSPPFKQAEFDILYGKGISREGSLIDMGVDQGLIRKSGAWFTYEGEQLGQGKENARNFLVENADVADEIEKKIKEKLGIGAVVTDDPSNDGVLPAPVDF

[2] = inhibitors of CMV-promoter luciferase reporter, dose response, counter-screen for Pax8 inhibitor project, cell-based, HEK293, luminescence, dry powder (AID 743020); assay type: functional
Paired box protein Pax-8 = Paired box protein Pax-8 (Homo sapiens, UniProt Q06710); test: inhibitors of PAX8-driven TPO luciferase reporter, dose response, RMG-I cells, cherry-pick (AID 687027); assay type: functional, cell-based;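 also: luciferase reporter driven by Pax8 target thyroperoxidase promoter measured by SteadyGlo luminescence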
[3] = target: Dual specificity protein phosphatase 3 (Homo sapiens, UniProt P51452); test: VHR1 phosphatase inhibitors, biochemical (AID 1878)
[4] = target: T2, Tyrosine-protein phosphatase non-receptor type 7 (Homo sapiens, UniProt P35236); assay type: functional
T2 sequence (P35236 whole entry): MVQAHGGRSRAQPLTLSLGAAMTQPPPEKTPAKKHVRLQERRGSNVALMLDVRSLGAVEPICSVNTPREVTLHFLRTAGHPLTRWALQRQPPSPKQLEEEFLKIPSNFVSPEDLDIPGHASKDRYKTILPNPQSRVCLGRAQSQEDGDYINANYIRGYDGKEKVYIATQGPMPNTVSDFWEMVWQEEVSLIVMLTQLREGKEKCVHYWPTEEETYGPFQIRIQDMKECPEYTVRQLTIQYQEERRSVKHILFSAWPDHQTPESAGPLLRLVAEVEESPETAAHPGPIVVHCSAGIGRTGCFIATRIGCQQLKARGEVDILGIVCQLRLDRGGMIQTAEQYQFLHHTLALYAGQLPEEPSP

[5] = non-specific cell cytotoxicity, dose response, cytotoxicity control for PAX8 inhibitor project, plate reader, dry powder samples (AID 743021); assay type: functional, cell-based
[6] = NIH-3T3 fibroblast cytotoxicity, dose response, cytotoxicity control, cell-based, fluorescence, Alamar Blue, secondary assay (AID 2327); assay type: functional;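 also: NIH-3T3 mouse fibroblasts cultured with fluconazole at 8 µg/mL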
[7] = Luminescence-based dose response cell-based high throughput screening assay for cytotoxic compounds using the IEC-6 intestinal epithelial cell line. [Related pubchem assays: 1858 (Summary AID.), 1825 (Counterscreen.), 1907 (Confirmation screen.)]; assay type: functional
[8] = target: Histone-lysine N-methyltransferase NSD2 (Homo sapiens, UniProt O96028); assay type: biochemical
Protein RecA [9] = target: T1, Protein RecA; test: RecA Intein Measured in Biochemical System Using Plate Reader - 2047-02_Inhibitor_Dose_DryPowder_Activity. [Related pubchem assays (depositor defined):AID2223]; parameters: species or system Mycobacterium tuberculosis H37Rv
[10] = inhibitors of PGC1a acetylation in cells, dose response, cell-based, cherry-picked samples (AID 720514); assay type: functional;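 also: potency may reflect raised or lowered acetylation signal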
[11] = target: Tyrosine-protein kinase SYK (Homo sapiens, UniProt P43405); assay type: functional
[12] = target: High affinity nerve growth factor receptor (Homo sapiens, UniProt P04629); assay type: functional;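 also: NTRK1 tested as one member of a kinome-wide profiling panel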
Sequence of High affinity nerve growth factor receptor (P04629 whole entry): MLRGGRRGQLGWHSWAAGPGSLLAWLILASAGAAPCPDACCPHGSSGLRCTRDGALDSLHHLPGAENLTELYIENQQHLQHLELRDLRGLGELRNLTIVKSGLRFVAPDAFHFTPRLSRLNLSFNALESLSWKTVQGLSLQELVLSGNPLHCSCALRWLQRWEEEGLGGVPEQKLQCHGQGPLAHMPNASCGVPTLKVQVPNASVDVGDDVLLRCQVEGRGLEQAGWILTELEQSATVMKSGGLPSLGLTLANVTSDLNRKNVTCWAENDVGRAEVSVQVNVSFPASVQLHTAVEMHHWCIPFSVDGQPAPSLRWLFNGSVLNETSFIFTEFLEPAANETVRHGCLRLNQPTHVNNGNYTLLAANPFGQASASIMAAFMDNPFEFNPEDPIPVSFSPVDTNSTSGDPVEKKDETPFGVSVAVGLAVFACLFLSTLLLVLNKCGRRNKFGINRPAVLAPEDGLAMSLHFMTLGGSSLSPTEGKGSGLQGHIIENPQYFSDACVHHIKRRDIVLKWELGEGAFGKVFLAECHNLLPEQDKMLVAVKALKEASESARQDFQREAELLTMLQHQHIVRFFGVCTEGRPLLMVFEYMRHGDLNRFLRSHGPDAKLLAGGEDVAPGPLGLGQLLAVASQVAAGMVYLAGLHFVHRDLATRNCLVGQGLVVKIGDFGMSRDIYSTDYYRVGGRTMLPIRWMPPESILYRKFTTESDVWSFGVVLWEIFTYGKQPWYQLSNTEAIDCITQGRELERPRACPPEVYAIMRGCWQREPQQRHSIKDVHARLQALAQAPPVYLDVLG

[13] = target: Insulin-like growth factor 1 receptor (Homo sapiens, UniProt P08069); test: Navigating the Kinome. Panel member name: IGF1R; assay type: functional
[14] = target: BDNF/NT-3 growth factors receptor (Homo sapiens, UniProt Q16620); assay type: functional;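 also: NTRK2 measured as one member of a broad kinome-wide kinase profiling panel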
Sequence of BDNF/NT-3 growth factors receptor (Q16620 whole entry): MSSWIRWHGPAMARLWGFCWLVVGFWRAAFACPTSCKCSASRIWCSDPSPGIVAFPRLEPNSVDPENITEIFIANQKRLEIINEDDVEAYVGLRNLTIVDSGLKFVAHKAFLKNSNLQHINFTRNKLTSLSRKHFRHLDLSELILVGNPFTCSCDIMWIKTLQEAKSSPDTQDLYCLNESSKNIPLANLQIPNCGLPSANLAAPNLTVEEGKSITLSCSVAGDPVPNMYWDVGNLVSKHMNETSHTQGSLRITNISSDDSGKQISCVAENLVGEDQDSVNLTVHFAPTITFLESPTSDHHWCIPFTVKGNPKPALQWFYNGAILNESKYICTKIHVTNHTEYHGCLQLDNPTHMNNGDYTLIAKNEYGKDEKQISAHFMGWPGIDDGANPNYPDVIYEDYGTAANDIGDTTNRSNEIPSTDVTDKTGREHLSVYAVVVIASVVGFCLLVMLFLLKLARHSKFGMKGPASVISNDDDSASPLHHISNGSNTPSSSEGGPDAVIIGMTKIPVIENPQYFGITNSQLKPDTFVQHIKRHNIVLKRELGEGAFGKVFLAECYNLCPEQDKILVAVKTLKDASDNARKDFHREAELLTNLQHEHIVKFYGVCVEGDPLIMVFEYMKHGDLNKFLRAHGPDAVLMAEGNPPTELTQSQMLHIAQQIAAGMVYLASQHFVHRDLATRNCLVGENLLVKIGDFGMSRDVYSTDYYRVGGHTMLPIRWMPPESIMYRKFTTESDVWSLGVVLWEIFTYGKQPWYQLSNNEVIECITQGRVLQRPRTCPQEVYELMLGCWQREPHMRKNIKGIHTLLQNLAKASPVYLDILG

[15] = target: Protein kinase C gamma type (Homo sapiens, UniProt P05129); assay type: functional
[16] = target: Mast/stem cell growth factor receptor Kit (Homo sapiens, UniProt P10721); assay type: functional;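 also: KIT entry within a kinase panel assay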
[17] = target: STE20-like serine/threonine-protein kinase (Homo sapiens, UniProt Q9H2G2); assay type: functional
Sequence of STE20-like serine/threonine-protein kinase (Q9H2G2 whole entry): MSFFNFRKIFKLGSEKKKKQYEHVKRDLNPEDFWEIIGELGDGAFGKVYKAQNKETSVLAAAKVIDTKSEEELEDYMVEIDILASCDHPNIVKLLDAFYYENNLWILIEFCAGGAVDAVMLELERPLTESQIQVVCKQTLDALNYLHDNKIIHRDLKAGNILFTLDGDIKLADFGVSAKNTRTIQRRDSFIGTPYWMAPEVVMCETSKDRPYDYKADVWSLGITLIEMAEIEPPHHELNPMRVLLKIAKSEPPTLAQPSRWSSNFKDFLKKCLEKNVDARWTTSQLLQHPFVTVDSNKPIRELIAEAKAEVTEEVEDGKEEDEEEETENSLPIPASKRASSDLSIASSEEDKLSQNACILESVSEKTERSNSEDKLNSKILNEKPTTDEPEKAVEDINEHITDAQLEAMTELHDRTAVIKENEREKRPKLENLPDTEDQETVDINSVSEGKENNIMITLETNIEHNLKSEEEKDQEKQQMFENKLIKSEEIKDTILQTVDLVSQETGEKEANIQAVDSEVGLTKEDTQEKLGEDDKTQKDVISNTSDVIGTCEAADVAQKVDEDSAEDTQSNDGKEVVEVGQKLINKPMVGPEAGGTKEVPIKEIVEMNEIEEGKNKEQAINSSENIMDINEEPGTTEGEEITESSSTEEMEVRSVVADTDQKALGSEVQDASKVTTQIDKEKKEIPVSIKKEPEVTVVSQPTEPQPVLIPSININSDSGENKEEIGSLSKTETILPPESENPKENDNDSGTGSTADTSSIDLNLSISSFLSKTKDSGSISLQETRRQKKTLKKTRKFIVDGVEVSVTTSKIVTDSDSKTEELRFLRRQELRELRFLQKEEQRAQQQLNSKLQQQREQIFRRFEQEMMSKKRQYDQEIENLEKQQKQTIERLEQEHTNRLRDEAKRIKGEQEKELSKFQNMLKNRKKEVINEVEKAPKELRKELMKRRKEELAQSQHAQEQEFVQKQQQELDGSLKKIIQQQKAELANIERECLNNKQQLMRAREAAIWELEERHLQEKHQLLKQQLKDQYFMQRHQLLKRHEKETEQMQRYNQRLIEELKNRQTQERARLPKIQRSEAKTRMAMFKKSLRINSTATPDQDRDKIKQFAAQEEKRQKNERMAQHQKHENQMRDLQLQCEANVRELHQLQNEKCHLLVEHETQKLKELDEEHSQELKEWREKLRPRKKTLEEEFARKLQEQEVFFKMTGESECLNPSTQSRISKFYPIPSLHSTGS

Ephrin type-A receptor 2 = Ephrin type-A receptor 2 (Homo sapiens, UniProt P29317); assay type: functional;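 also: EPHA2 tested as one member of a kinome-wide kinase panel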
Sequence of Ephrin type-A receptor 2 (P29317 whole entry): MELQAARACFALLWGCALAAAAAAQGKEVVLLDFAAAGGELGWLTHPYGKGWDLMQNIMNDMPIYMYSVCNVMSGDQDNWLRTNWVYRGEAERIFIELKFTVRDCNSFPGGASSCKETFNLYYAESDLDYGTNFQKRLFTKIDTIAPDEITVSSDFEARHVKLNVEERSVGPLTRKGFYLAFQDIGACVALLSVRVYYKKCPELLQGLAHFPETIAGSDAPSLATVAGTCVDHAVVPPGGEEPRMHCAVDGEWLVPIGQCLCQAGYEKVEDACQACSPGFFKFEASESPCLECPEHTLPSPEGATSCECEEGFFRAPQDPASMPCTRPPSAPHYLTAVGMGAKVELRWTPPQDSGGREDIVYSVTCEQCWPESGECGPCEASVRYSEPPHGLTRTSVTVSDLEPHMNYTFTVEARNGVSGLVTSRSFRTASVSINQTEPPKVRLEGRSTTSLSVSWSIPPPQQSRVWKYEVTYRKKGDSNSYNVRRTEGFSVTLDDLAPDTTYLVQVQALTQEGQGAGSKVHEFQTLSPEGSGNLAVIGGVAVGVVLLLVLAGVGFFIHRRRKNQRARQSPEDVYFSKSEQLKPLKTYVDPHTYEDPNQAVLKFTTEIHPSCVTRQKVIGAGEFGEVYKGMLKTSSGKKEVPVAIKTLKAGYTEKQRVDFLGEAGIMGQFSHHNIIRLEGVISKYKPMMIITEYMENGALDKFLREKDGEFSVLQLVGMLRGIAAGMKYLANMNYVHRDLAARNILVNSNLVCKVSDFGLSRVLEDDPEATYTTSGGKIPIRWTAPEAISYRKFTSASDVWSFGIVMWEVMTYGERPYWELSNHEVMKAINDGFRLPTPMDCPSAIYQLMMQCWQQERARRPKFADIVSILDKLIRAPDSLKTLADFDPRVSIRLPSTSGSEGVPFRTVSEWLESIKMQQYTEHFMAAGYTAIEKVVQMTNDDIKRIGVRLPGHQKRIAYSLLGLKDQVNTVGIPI

[18] = target: Glycogen synthase kinase-3 beta (Homo sapiens, UniProt P49841); assay type: functional;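 also: value comes from a broad kinome profiling panel, with GSK3B as the panel member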
Sequence of Glycogen synthase kinase-3 beta (P49841 whole entry): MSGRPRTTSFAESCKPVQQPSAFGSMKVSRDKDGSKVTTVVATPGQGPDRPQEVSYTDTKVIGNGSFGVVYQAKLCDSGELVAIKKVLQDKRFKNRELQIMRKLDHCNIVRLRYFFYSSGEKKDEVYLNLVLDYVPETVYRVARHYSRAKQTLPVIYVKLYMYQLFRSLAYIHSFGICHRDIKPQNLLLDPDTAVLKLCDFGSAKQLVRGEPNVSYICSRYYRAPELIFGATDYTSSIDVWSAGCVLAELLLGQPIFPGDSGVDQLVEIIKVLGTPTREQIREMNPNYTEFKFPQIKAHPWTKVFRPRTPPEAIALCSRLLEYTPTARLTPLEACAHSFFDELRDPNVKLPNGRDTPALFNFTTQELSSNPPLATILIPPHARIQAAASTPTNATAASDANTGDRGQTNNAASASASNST

[19] = target: Mitogen-activated protein kinase 9 (Homo sapiens, UniProt P45984); assay type: functional;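 also: value from a kinome panel profiling assay, MAPK9 panel entry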
Sequence of Mitogen-activated protein kinase 9 (P45984 whole entry): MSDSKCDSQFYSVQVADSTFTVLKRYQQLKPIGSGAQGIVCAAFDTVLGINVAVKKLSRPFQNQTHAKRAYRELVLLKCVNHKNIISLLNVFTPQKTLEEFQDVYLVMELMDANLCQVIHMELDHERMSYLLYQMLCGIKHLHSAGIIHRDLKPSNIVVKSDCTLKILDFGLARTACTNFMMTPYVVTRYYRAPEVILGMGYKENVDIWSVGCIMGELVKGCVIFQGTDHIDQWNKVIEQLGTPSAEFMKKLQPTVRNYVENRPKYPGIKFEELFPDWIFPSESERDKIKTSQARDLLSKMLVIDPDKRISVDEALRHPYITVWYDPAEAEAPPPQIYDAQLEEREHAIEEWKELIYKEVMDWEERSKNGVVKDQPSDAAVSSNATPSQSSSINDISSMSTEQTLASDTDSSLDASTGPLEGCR

[20] = target: Fibroblast growth factor receptor 3 (Homo sapiens, UniProt P22607); assay type: functional
[21] = target: cAMP-dependent protein kinase catalytic subunit PRKX (Homo sapiens, UniProt P51817); assay type: functional
Sequence of cAMP-dependent protein kinase catalytic subunit PRKX (P51817 whole entry): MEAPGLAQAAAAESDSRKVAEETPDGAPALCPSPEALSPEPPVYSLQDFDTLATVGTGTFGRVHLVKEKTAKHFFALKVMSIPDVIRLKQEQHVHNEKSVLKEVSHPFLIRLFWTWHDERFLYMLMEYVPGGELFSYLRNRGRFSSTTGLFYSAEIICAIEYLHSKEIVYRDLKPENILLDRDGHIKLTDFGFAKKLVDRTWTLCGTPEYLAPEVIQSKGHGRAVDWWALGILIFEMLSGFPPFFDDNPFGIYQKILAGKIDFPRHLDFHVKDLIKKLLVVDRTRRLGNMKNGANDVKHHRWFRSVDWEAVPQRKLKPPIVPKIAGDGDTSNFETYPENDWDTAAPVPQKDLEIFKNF

[22] = target: Serine/threonine-protein kinase PLK4 (Homo sapiens, UniProt O00444); assay type: functional;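 also: PLK4 measured as one member of a kinome-wide kinase profiling panel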
Jurkat = test: antigen receptor-induced NF-kB inhibitors, dose response, Jurkat, luciferase reporter, luminescence, B- and T-cell (AID 489004); assay type: functional, cell-based; details: Homo sapiens;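 also: NF-kB luciferase reporter Jurkat cells stimulated with PMA plus ionomycin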
[23] = cytotoxicity in HEK-293T NF-kB-Luc cells, dose response, cytotoxicity control for B/T-cell NF-kB inhibitor project, cell-based, uHTS hits (AID 489019); assay type: functional;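 also: IC50 reflects cytotoxicity as loss of cell viability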

CCn1nc(/C=C/c2ccccc2)nc2c(=O)n(C)c(=O)nc1-2
AC50 (Protein RecA [1]): 0.065 µM (active) | AC50 [2]: < 0.704 µM (active) | AC50 (Paired box protein Pax-8): 4.21 µM (active) | IC50 [3]: 106 µM (inactive) | IC50 [4]: 10.3 µM (active) | AC50 [5]: 12.7 µM (active) | EC50 [6]: 0.952 µM (inconclusive) | IC50 [7]: 0.335 µM (active) | AC50 [8]: 0.0879 µM (active) | AC50 (Protein RecA [9]): 0.06 µM (active) | AC50 [10]: 2.87 µM (active)

COc1cc2c(cc1Nc1nc(Nc3cccc(F)c3C(N)=O)c3cc[nH]c3n1)N(C(=O)CN(C)C)CC2
Ki [11]: > 1.58 µM (inactive) | Ki [12]: > 3.16 µM (inactive) | Ki [13]: 0.002 µM (active) | Ki [14]: > 3.98 µM (inactive) | Ki [15]: 1 µM (active) | Ki [16]: > 1.26 µM (inactive) | Ki [17]: > 10 µM (inactive) | Ki (Ephrin type-A receptor 2): > 3.16 µM (inactive) | Ki [18]: > 3.98 µM (inactive) | Ki [19]: 0.631 µM (active) | Ki [20]: > 2 µM (inactive) | Ki [21]: > 3.16 µM (inactive) | Ki [22]: 2 µM (active)

CC(C)c1ccc(-c2nnn(CCC(=O)O)n2)cc1
IC50 (Jurkat): < 0.16 µM (active) | IC50 [23]: > 80 µM (inactive)
